US10874643B2 (priority 2015, dated 2020)

Tests used:
scn1Lab mutants [1] = assay: Locomotion tracking assay of seizure behavior (96-well format)
5-HT3(h) = biological target: T1, 5-HT3(h) (Homo sapiens, UniProt P46098); assay: CEREP BioPrint binding; conditions: 1.0E-05M; agonist radioligand
T1 construct: CEREP (contract assay panel)
T1 sequence (P46098 24-478): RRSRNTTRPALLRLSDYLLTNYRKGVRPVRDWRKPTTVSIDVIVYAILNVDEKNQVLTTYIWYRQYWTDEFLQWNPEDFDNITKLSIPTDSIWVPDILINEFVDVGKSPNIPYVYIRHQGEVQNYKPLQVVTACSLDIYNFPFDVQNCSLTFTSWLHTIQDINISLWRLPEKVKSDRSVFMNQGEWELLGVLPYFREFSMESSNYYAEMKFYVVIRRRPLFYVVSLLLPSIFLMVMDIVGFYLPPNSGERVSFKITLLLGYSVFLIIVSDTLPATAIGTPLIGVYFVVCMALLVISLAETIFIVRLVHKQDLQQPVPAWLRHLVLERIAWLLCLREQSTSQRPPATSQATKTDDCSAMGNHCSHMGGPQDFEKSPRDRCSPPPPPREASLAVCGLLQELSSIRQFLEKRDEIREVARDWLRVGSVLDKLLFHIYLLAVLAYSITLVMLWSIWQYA
Method: (§1) Clemizole (149934-L6) was tested in the CEREP BioPrint Profile, which is apanel of 139 different in vitro receptor binding and enzyme assays. For the initial BioPrint screen, afree compound concentration of 10 μM (LOE-5 M) was used. Compound binding was calculated as a % inhibition of the binding of aradioactively labeled ligand specific for each target. Compound enzyme inhibition effect was calculated as a % inhibition of control enzyme activity. In each experiment, the respective reference compound was tested concurrently with Clemizole (149934-L6), and the data were compared with historical values determined at CEREP. The experiment was accepted in accordance with CEREP's validation Standard Operating Procedure. Results showing an inhibition (or stimulation for assays run in basal conditions) higher than 50% are considered to represent significant effects of the test compounds.

5-HT1A(h) = biological target: T2, 5-HT1A(h) (Homo sapiens, UniProt P08908); assay: CEREP BioPrint binding; conditions: 1.0E-05M; agonist radioligand
T2 construct: CEREP (contract assay panel)
T2 sequence (P08908 1-422): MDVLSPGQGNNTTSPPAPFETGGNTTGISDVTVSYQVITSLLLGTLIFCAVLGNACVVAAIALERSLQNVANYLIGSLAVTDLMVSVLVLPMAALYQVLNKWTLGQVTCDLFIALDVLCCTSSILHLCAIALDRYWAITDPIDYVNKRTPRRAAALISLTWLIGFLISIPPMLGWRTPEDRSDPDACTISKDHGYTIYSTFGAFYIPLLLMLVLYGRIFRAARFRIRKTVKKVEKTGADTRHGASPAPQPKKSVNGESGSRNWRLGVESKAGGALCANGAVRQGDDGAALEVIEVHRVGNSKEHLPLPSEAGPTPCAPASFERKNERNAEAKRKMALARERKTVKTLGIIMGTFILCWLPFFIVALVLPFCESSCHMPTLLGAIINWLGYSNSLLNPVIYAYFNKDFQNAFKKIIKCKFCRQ
Method: as §1

GABA-gated Cl channel = assay: CEREP BioPrint binding; conditions: 1.0E-05M
Method: as §1

CB1(h) = biological target: T3, CB1(h) (Homo sapiens, UniProt P21554); assay: CEREP BioPrint binding; conditions: 1.0E-05M; agonist radioligand
T3 construct: CEREP (contract assay panel)
Method: as §1

GABAA1(h) = biological target: T4, GABAA1(h) (Homo sapiens, UniProt P14867+P47870); assay: CEREP BioPrint binding; conditions: 1.0E-05M; agonist radioligand
T4 construct: CEREP (contract assay panel)
T4 sequence (P14867 28-456): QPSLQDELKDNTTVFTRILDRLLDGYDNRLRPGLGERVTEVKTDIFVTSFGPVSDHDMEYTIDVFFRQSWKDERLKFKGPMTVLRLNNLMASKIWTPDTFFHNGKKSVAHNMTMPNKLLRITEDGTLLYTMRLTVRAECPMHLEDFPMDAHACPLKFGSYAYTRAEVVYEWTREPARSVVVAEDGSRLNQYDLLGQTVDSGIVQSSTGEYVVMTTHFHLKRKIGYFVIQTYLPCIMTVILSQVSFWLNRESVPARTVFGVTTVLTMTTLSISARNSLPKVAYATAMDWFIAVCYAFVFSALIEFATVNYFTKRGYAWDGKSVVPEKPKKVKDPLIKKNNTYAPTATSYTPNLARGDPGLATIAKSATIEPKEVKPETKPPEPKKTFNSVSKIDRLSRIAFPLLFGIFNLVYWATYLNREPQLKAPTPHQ
T4 sequence (P47870 25-512 limits assumed): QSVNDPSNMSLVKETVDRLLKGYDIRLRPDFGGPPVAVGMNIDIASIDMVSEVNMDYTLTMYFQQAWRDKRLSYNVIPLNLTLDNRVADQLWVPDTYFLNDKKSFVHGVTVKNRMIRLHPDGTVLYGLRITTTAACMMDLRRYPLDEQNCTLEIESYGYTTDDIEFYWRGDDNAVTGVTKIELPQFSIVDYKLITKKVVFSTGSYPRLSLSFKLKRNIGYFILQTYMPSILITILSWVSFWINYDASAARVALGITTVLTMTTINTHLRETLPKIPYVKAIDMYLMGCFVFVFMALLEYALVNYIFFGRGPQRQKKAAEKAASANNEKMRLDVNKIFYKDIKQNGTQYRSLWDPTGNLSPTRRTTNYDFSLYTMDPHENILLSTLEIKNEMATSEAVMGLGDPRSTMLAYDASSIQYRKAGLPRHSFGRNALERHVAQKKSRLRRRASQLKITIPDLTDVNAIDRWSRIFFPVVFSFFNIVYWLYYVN
T4 sequence (P18507 40-467 partner limits assumed): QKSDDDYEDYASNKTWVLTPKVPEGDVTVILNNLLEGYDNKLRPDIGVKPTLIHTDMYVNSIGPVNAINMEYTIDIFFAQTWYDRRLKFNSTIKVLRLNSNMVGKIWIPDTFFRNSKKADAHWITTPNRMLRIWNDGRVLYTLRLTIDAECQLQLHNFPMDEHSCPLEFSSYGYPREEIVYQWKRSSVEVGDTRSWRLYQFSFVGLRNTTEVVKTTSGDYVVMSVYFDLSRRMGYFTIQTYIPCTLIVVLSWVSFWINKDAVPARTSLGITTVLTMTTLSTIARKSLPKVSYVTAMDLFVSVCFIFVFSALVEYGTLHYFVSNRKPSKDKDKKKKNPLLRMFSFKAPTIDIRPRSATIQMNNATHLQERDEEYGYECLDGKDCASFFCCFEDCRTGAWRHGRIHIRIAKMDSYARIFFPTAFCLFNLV
Method: as §1

GABAB(1b)(h) = biological target: T5, GABAB(1b)(h) (Homo sapiens, UniProt Q9UBS5); assay: CEREP BioPrint binding; conditions: 1.0E-05M; agonist radioligand
T5 construct: CEREP (contract assay panel)
Method: as §1

5-HT4e(h) = biological target: T6, 5-HT4e(h) (Homo sapiens, UniProt Q13639); assay: CEREP BioPrint binding; conditions: 1.0E-05M; agonist radioligand
T6 construct: CEREP (contract assay panel)
Method: as §1

5-HT1B(h) = biological target: T7, 5-HT1B(h) (Homo sapiens, UniProt P28222); assay: CEREP BioPrint binding; conditions: 1.0E-05M; agonist radioligand
T7 construct: CEREP (contract assay panel)
Method: as §1

CB2(h) = biological target: T8, CB2(h) (Homo sapiens, UniProt P34972); assay: CEREP BioPrint binding; conditions: 1.0E-05M; agonist radioligand
T8 construct: CEREP (contract assay panel)
Method: as §1

5-HT2B(h) = biological target: T9, 5-HT2B(h) (Homo sapiens, UniProt P41595); assay: CEREP BioPrint binding; conditions: 1.0E-05M; agonist radioligand
T9 construct: CEREP (contract assay panel)
Method: as §1

SK-Ca channel = assay: CEREP BioPrint binding; conditions: 1.0E-05M
Method: as §1

5-HT1D(h) = biological target: T10, 5-HT1D(h) (Homo sapiens, UniProt P28221); assay: CEREP BioPrint binding; conditions: 1.0E-05M; agonist radioligand
T10 construct: CEREP (contract assay panel)
Method: as §1

5-HT2A(h) = biological target: T11, 5-HT2A(h) (Homo sapiens, UniProt P28223); assay: CEREP BioPrint binding; conditions: 1.0E-05M; agonist radioligand
T11 construct: CEREP (contract assay panel)
Method: as §1

GABA transporter = assay: CEREP BioPrint binding; conditions: 1.0E-05M
Method: as §1

BZD (central) = assay: CEREP BioPrint binding; conditions: 1.0E-05M; agonist radioligand
Method: as §1

[2] = system: WT zebrafish exposed to 15 mM pentylenetetrazole; assay: PTZ-induced seizure behavior in wild-type larvae (locomotion); format: in vivo; conditions: 100 μM; 15 mM PTZ; n=10
scn1Lab mutants [3] = format: in vivo, zebrafish

T6 sequence (Q13639 1-378 isoform Q13639-5): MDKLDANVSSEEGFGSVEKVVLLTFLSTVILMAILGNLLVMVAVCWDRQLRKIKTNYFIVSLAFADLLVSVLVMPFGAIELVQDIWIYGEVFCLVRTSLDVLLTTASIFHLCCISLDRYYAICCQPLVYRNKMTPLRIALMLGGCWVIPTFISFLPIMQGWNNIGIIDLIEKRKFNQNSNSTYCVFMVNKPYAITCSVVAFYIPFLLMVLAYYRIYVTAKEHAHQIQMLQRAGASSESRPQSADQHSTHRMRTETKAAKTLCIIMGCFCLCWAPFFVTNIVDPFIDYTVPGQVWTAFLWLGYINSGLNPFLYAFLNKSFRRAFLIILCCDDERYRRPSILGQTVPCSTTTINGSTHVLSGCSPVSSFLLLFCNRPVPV
T9 sequence (P41595 whole entry): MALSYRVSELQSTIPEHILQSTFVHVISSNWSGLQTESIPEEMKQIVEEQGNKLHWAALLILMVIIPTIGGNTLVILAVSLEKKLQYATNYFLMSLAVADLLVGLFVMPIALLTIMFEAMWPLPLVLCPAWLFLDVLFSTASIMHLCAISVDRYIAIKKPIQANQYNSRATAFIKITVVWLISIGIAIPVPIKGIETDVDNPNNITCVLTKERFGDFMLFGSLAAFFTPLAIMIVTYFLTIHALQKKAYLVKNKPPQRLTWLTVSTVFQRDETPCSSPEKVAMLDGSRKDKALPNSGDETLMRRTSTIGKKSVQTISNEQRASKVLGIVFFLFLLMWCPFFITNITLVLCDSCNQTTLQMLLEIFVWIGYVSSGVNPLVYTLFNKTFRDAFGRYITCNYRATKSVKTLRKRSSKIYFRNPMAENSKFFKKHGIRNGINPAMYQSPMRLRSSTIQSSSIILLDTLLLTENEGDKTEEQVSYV
T7 sequence (P28222 whole entry): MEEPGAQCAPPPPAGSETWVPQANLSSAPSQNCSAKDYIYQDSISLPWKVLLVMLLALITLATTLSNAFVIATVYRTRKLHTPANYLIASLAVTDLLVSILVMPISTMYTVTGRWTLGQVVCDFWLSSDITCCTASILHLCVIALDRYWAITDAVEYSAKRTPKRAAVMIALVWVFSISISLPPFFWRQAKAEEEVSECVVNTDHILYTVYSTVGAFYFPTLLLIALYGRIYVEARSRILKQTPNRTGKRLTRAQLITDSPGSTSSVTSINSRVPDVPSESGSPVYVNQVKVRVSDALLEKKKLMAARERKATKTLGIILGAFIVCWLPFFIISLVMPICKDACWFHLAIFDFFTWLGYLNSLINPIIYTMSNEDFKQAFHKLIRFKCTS
T3 sequence (P21554 whole entry): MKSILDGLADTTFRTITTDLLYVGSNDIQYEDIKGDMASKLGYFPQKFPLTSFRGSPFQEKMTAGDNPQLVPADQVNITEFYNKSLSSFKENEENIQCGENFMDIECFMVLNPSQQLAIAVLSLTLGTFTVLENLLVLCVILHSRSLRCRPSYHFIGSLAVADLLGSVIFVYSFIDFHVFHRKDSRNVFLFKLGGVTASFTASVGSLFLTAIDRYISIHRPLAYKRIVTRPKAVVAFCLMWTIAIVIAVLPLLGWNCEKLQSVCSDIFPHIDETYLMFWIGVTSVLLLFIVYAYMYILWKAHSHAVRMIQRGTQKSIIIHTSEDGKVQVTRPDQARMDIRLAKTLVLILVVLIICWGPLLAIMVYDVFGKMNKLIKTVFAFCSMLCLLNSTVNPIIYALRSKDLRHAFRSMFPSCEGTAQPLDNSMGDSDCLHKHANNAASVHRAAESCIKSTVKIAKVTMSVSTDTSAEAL
T8 sequence (P34972 whole entry): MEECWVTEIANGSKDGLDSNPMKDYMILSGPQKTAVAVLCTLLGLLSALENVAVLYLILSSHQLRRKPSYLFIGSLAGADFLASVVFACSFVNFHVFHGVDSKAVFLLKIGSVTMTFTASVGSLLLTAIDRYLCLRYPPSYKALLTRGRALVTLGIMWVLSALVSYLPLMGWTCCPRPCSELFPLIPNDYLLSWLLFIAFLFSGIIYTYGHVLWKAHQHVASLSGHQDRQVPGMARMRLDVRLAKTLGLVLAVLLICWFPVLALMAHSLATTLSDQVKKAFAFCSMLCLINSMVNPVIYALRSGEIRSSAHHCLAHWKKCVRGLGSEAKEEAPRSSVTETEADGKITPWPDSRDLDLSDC
T11 sequence (P28223 whole entry): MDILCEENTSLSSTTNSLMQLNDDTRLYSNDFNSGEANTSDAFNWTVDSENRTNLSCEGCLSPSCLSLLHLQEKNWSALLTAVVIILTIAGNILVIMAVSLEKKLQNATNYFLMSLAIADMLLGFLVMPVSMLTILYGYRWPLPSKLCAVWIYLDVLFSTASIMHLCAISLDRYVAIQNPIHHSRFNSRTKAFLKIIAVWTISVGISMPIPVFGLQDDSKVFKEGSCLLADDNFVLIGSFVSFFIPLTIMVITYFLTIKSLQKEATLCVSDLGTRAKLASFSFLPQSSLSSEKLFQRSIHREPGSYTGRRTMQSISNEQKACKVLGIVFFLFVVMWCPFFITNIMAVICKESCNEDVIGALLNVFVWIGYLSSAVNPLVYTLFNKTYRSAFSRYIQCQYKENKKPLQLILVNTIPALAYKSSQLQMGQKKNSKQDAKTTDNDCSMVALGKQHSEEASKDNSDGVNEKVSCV
T10 sequence (P28221 whole entry): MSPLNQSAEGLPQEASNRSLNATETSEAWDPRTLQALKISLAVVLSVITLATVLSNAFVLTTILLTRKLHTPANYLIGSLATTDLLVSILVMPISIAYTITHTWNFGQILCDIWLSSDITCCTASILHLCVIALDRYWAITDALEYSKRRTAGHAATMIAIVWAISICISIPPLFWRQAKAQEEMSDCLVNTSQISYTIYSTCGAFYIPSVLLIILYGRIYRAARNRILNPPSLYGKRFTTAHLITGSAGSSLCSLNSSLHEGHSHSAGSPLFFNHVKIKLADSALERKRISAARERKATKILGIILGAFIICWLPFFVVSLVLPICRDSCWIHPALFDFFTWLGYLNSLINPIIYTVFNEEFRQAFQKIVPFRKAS
T5 sequence (Q9UBS5 1-844 isoform Q9UBS5-2): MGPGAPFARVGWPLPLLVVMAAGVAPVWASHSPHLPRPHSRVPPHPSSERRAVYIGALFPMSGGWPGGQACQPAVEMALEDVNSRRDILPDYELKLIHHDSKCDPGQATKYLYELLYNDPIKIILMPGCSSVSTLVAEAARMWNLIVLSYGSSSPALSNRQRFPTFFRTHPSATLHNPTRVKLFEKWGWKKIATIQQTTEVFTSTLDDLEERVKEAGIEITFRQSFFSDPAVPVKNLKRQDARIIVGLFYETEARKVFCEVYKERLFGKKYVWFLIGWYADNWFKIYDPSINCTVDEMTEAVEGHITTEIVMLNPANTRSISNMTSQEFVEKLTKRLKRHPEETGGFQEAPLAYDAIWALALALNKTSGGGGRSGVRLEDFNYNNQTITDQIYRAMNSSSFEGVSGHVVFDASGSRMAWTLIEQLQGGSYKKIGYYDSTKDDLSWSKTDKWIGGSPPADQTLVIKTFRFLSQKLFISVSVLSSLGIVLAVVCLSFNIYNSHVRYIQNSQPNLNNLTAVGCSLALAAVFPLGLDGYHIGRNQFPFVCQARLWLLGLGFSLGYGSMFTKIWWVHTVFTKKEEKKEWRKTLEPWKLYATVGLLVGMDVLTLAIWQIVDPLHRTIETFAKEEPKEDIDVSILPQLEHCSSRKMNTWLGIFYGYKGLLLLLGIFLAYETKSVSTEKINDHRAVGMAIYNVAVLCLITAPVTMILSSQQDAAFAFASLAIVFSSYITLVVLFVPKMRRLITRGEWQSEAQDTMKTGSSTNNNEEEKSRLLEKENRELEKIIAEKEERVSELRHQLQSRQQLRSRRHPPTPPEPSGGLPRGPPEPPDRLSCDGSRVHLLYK

Structure (SMILES): Clc1ccc(Cn2c(CN3CCCC3)nc3ccccc32)cc1 [Clemizole]
- swim activity / seizure behavior, third evaluation (scn1Lab mutants [1]; 100 μM, 10 fish per trial): effective in suppressing spontaneous seizure activity
- seizure-induced swim activity and mean velocity, re-test on separate clutch (scn1Lab mutants [1]; 667, 67 and 6.7 μM): effective in reducing seizure-induced swim activity and mean velocity
- effect on seizure behavior (scn1Lab mutants [1]; concentrations between 6.25 and 50 μM, n=33): no significant effect
- % inhibition of the binding of a radioactively labeled ligand, 5-HT3(h) (5-HT3(h)): 9.8%
- % inhibition of the binding of a radioactively labeled ligand, 5-HT1A(h) (5-HT1A(h)): 19.5%
- % inhibition of the binding of a radioactively labeled ligand, GABA-gated Cl channel (GABA-gated Cl channel): 24.9%
- % inhibition of the binding of a radioactively labeled ligand, CB1(h) (CB1(h)): 17.9%
- % inhibition of the binding of a radioactively labeled ligand, GABAA1(h) (GABAA1(h)): −9.6%
- % inhibition of the binding of a radioactively labeled ligand, GABAB(1b)(h) (GABAB(1b)(h)): −5.9%
- % inhibition of the binding of a radioactively labeled ligand, 5-HT4e(h) (5-HT4e(h)): −1.0%
- % inhibition of the binding of a radioactively labeled ligand, 5-HT1B(h) (5-HT1B(h)): 4.4%
- % inhibition of the binding of a radioactively labeled ligand, CB2(h) (CB2(h)): 28.4%
- % inhibition of the binding of a radioactively labeled ligand, 5-HT2B(h) (5-HT2B(h)): 82.5%
- % inhibition of the binding of a radioactively labeled ligand, SK-Ca channel (SK-Ca channel): −0.2%
- % inhibition of the binding of a radioactively labeled ligand, 5-HT1D(h) (5-HT1D(h)): 22.7%
- % inhibition of the binding of a radioactively labeled ligand, 5-HT2A(h) (5-HT2A(h)): 86%
- % inhibition of the binding of a radioactively labeled ligand, GABA transporter (GABA transporter): −5.9%
- % inhibition of the binding of a radioactively labeled ligand, BZD (central) (BZD (central)): −19.6%
- seizure behavior [2]: effective in reducing seizure behavior
- forebrain electrographic seizure activity in the same mutants after the locomotion assay (scn1Lab mutants [3]; 100 μM, mutant embedded in agar): effective in suppressing spontaneous seizure activity
- burst duration (scn1Lab mutants [3]; clemizole-treated mutants (100 μM), n=7, un-treated mutants 926±414): 154 ± 127 ms
- burst frequency (scn1Lab mutants [3]; mutants exposed to clemizole first in locomotion assay (100 μM), n=7, un-treated mutants 1.5±0.3): 0.2±0.01 bursts/min
